# B1: TipAN: N terminus of TipAL, residues 1–109 (protein)
# chain: MSYSVGQVAGFAGVTVRTLHHYDDIGLLVPSERSHAGHRRYSDADLDRLQQILFYRELGFPLDEVAALLDDPAADPRAHLRRQHELLSARIGKLQKMAAAVEQAMEARS
# modifications: left off: His6, end not stated, state not stated
# What was measured:
# TipAL = test: FPA, thiostrepton-induced activation of TipAL-ptipA binding; format: biochemical, Streptomyces lividans; conditions: WT TipAL with vs without thiostrepton (1:1, 15 min)
# Method: (§1) FPAs were performed in buffer consisting of 20 mM Tris-HCl, pH 7.5, 200 mM NaCl and 5% (v/v) glycerol at 298 K using a SpectraMax M5 microplate reader system (Molecular Devices, San Jose, CA, USA). The wavelengths of fluorescence excitation and emission were 486 and 525 nm, respectively. 26-bp dsDNA from the −10 and −35 regions of the tipA, mta, and skgA promoters with the sequences […], […], and […] were synthesized with a 5′-carboxyfluorescein label for the respective assays with TipAL, Mta, and SkgA proteins. For assays with thiostrepton supplementation, proteins were incubated with thiostrepton (Sigma) at a 1:1 ratio for 15 min prior to mixing with DNA in wells. Each well of a 384-well plate contained 10 nM of a fluorescently labeled DNA probe and different amounts of proteins with a final volume of 80 μl. DNA-free controls were included, and three replicates were performed for each reaction for each assay. The fluorescence polarization ΔP (in mP units) was calculated and fitted according to a one-site specific binding model using GraphPad Prism7 (GraphPad Software) with the function ΔP = ΔPmax[protein]/(Kd + [protein]).
# F123A mutant of TipAL = F123A mutant of TipAL (Streptomyces lividans, UniProt P0A4T9, F123A); test: FPA, thiostrepton-induced activation of F123A TipAL-ptipA binding; format: biochemical; conditions: thiostrepton 1:1, 15 min
# Method: as §1
# [1] = biological target: F123A/F126A mutant of TipAL (Streptomyces lividans, UniProt P0A4T9, F123A/F126A); test: FPA, thiostrepton-induced activation of F123A/F126A TipAL-ptipA binding; format: biochemical; conditions: thiostrepton 1:1, 15 min
# Method: as §1
# [2] = biological target: tipA promoter DNA (ptipA); test: Fluorescence polarization assay, tipA promoter DNA binding; parameters: species or system Streptomyces lividans; conditions: apo, no antibiotic; FPA, 10 nM 5'-carboxyfluorescein-labeled 26-bp dsDNA, 20 mM Tris-HCl pH 7.5, 200 mM NaCl, 5% glycerol, 298 K; ex 486/em 525 nm; one-site binding fit; three replicates; n.b. = printed in picture, not defined; read-out: Kd, affinity with the tipA promoter DNA (ptipA)
# Method: Fluorescence polarization assays (FPAs) were performed to test the structure-based hypothesis that α6–α7 plays a key role in communication between the ligand-binding and DNA-binding regions. […] Parallel experiments were also performed for Mta and SkgA proteins, and consistent results were obtained.
# as §1
# [3] = parameters: method as in PMID 11669632, PMID 14985361; conditions: ref [19], [26]; cited from earlier work
# Chain of F123A/F126A mutant of TipAL (P0A4T9 whole entry F123A/F126A): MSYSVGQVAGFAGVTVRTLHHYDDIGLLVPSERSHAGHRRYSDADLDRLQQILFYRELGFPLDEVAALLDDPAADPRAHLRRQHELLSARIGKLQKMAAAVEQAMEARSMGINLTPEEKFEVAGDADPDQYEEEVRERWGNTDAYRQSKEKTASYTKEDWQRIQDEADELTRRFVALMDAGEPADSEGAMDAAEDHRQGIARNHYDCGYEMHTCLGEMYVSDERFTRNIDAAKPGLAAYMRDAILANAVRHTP
# Chain of F123A mutant of TipAL (P0A4T9 whole entry F123A): as the sequence (P0A4T9 whole entry F123A/F126A) above, with A126F counted along it
Molecule,increase in ptipA affinity of TipAL by thiostrepton binding (TipAL) [fold],rise in ptipA binding in the presence of thiostrepton (F123A mutant of TipAL),rise in ptipA binding in the presence of thiostrepton [1],Kd [2] [nM],transcriptional activity in the absence of the TipAS domain [3]
C=C(NC(=O)C(=C)NC(=O)c1csc(C2=N[C@@H]3c4csc(n4)[C@H]4NC(=O)c5csc(n5)[C@H]([C@](C)(O)[C@@H](C)O)NC(=O)[C@H]5CSC(=N5)/C(=C/C)NC(=O)[C@H]([C@@H](C)O)NC(=O)c5csc(n5)[C@]3(CC2)NC(=O)[C@H](C)NC(=O)C(=C)NC(=O)[C@H](C)NC(=O)[C@H]([C@@H](C)CC)N[C@@H]2C=Cc3c([C@H](C)O)cc(nc3[C@H]2O)C(=O)O[C@@H]4C)n1)C(N)=O [thiostrepton],~12.6,did not show such a significant rise,did not show such a significant rise,–,–
B1,–,–,–,44 ± 5.1,constitutively transcriptionally active

# Reference: paper PMC7762955, “Antibiotic binding releases autoinhibition of the TipA multidrug-resistance transcriptional regulator” (The Journal of Biological Chemistry, 2020)
